Reference: patent US20250084056A1, “SUBSTITUTED OXOISOINDOLINYL PIPERIDINE-2,6-DIONE COMPOUNDS” (BRISTOL-MYERS SQUIBB COMPANY, priority 2023, published 2025)

Tests used:
Type in all cases: cell-based
Cyclin E1 = Cyclin E1 (Homo sapiens, UniProt P24864+Q96SW2); experiment: Cyclin E1 Cellular Degradation Assay (MSD); set-up: endogenous in cells; host or cells: OVCAR3; conditions: for DC50 / Dmax: Cyclin E1 cellular degradation; for Dmax: maximum degradation; for Ratio of GSPT1 DC50/Cyclin E1 DC50: selectivity for degradation of Cyclin E1 over GSPT1
Summary of the method: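 OVCAR3 cells treated with compound for 24 h at 37 °C, lysed, and cyclin E1 measured by MSD sandwich immunoassay (rabbit capture, mouse detection anti-CCNE1). Reference degrader at […] defined 110% response; DC50 and Dmax derived from response.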

GSPT1 = GSPT1 (Homo sapiens, UniProt P15170+Q96SW2); experiment: GSPT1 Cellular Degradation Assay (DF15-GSPT1-ePL); set-up: expressed in transfected cells; conditions: DF15-GSPT1-ePL cells, 20 hours
Summary of the method: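 Human DF15 cells co-expressing a GSPT1–ePL fusion were treated with compound in RPMI 1640/10% FBS for 20 h at 37 °C. GSPT1 level was read by enzyme-fragment-complementation luminescence after 60 min with detection reagent. The reference degrader at […] defined 75% response; DC50 and Dmax were reported.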

Phospho-Rb (Ser807/811) = experiment: Phospho-Retinoblastoma (pRB) Cellular Assay; conditions: Homo sapiens, OVCAR-3, NIH OVCAR3 cells, 24 hours; for IC50: concentration giving 50% response; for Emax: maximum response, reference compound at 10 μM = 100%, read-out: pRB Ymax
Summary of the method: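 OVCAR3 cells seeded overnight, then dosed with serial dilutions for 24 h at 37° C. Lysed with kit mix plus phosphatase inhibitor, ≥4 h at room temperature, read on EnVision; 100% response set by reference compound at 10 μM, giving IC50 and Ymax.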

GSPT1, sequence (P15170 whole entry, the tested form may be a part): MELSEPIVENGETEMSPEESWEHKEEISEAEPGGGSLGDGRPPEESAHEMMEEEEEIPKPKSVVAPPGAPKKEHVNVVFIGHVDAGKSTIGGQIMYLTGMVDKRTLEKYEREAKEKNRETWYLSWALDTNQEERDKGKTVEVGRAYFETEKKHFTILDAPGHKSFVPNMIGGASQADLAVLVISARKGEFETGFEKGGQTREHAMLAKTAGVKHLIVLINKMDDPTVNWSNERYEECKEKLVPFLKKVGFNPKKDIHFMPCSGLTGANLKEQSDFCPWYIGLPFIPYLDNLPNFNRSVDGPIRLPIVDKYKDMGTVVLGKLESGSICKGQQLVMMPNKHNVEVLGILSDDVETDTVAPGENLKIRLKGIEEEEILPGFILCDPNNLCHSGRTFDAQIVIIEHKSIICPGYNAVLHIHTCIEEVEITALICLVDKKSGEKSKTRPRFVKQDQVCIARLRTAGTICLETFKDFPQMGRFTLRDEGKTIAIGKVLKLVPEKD
GSPT1, sequence (Q96SW2 whole entry, the tested form may be a part): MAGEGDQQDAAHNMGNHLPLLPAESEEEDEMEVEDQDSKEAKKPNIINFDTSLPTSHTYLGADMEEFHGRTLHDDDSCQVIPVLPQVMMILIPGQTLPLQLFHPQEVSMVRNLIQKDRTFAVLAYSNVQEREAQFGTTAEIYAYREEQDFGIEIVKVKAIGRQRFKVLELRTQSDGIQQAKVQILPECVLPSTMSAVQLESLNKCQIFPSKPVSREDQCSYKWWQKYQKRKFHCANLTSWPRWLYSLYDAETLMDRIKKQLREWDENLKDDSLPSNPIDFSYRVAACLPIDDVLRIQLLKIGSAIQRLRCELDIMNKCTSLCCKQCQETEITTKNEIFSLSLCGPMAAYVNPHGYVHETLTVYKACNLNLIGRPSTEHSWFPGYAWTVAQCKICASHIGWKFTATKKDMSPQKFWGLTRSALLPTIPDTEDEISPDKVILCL
GSPT1, sequence (Q16531 whole entry partner, the tested form may be a part): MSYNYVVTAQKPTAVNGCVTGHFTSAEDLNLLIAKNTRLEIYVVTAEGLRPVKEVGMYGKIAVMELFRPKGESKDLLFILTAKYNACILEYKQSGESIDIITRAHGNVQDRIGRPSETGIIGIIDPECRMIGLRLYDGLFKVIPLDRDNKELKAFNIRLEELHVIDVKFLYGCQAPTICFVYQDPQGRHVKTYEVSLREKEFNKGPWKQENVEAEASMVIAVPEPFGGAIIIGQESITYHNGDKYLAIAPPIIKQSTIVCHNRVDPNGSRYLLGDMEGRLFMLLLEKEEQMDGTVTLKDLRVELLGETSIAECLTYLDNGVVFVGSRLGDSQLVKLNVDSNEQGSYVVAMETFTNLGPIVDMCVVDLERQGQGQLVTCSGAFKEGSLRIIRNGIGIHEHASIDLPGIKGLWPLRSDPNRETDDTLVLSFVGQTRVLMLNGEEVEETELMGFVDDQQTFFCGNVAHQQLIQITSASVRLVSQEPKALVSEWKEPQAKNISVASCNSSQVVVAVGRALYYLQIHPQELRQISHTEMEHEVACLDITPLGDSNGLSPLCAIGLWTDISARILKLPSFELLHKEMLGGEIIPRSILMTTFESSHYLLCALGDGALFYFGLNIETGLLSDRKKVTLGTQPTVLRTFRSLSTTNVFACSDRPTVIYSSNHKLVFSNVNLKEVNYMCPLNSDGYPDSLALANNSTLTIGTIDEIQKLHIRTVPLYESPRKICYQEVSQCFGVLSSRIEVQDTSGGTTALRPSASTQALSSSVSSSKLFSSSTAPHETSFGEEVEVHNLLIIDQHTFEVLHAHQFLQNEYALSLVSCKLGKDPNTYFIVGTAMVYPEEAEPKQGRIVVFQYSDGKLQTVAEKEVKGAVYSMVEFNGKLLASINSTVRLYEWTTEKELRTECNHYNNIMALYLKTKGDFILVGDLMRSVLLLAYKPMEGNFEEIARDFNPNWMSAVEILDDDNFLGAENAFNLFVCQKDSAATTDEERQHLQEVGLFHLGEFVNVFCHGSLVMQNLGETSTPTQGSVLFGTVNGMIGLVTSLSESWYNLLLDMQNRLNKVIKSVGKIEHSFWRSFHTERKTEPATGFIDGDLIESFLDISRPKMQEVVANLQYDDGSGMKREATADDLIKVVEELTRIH
Cyclin E1, sequence (P24864 whole entry): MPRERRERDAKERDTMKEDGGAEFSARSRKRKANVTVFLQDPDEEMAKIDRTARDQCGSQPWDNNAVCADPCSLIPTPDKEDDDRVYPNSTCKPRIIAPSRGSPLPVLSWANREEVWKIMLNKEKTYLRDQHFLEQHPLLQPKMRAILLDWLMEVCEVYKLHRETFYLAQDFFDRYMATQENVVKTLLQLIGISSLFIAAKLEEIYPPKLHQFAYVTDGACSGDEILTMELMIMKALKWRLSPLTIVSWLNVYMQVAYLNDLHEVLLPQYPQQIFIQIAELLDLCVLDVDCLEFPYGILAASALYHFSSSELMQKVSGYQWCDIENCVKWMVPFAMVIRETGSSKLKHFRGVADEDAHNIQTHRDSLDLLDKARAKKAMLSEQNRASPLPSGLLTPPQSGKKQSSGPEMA
Cyclin E1, sequence (Q96SW2 whole entry): as the sequence (Q96SW2 whole entry, the tested form may be a part) above
Cyclin E1, sequence (Q16531 whole entry partner): as the sequence (Q16531 whole entry partner, the tested form may be a part) above

`COc1c(COC(=O)Nc2ccc(Oc3cccc(Cl)c3)cc2F)ccc2c1C(=O)N(C1CCC(=O)NC1=O)C2` (centres unmarked) [Example 26, [2-(2,6-dioxopiperidin-3-yl)-4-methoxy-3-oxo-2,3-dihydro-1H-isoindol-5-yl]methyl N-[4-(3-chlorophenoxy)-2-fluorophenyl]carbamate] was tested, and the DC50 (Cyclin E1) was 97 nM, the Dmax (Cyclin E1) was 106% and the “Ratio of GSPT1 DC50/Cyclin E1 DC50” value (Cyclin E1) was greater than 145. The DC50 (GSPT1) was greater than 14000 nM, the Dmax (GSPT1) was 32% and the IC50 (Phospho-Rb (Ser807/811)) was 428 nM. The Emax (Phospho-Rb (Ser807/811)) was 96%.
For `COc1c(COC(=O)Nc2ccc(Oc3cccc(F)c3)cc2Cl)ccc2c1C(=O)N(C1CCC(=O)NC1=O)C2` (centres unmarked) [Example 27, [2-(2,6-dioxopiperidin-3-yl)-4-methoxy-3-oxo-2,3-dihydro-1H-isoindol-5-yl]methyl N-[2-chloro-4-(3-fluorophenoxy)phenyl]carbamate], the DC50 (Cyclin E1) was 93 nM, the Dmax (Cyclin E1) was 104% and the “Ratio of GSPT1 DC50/Cyclin E1 DC50” value (Cyclin E1) was greater than 151. The DC50 (GSPT1) was greater than 14000 nM, the Dmax (GSPT1) was 30% and the IC50 (Phospho-Rb (Ser807/811)) was 1180 nM. For the same compound, the Emax (Phospho-Rb (Ser807/811)) was 86%.
In the case of `COc1c(COC(=O)Nc2ccc(Oc3ccc(F)cc3)cc2F)ccc2c1C(=O)N(C1CCC(=O)NC1=O)C2` (centres unmarked) [Example 28, [2-(2,6-dioxopiperidin-3-yl)-4-methoxy-3-oxo-2,3-dihydro-1H-isoindol-5-yl]methyl N-[2-fluoro-4-(4-fluorophenoxy)phenyl]carbamate], the DC50 (Cyclin E1) is reported as 110 nM, the Dmax (Cyclin E1) is reported as 103% and the “Ratio of GSPT1 DC50/Cyclin E1 DC50” value (Cyclin E1) is reported as greater than 127. For the same compound, the DC50 (GSPT1) was greater than 14000 nM, the Dmax (GSPT1) was 45% and the IC50 (Phospho-Rb (Ser807/811)) was 100 nM. It also gave an Emax (Phospho-Rb (Ser807/811)) of 106%.
`COc1c(COC(=O)Nc2ccc(C(F)(F)c3ccccc3)cc2)ccc2c1C(=O)N(C1CCC(=O)NC1=O)C2` (centres unmarked) [Example 29, [2-(2,6-dioxopiperidin-3-yl)-4-methoxy-3-oxo-2,3-dihydro-1H-isoindol-5-yl]methyl N-{4-[difluoro(phenyl)methyl]phenyl}carbamate] was tested, and the DC50 (Cyclin E1) was 1430 nM, the Dmax (Cyclin E1) was 92% and the “Ratio of GSPT1 DC50/Cyclin E1 DC50” value (Cyclin E1) was greater than 10. The DC50 (GSPT1) was greater than 14000 nM, the Dmax (GSPT1) was 45% and the IC50 (Phospho-Rb (Ser807/811)) was 865 nM. It also gave an Emax (Phospho-Rb (Ser807/811)) of 99%.
For `COc1c(COC(=O)Nc2ccc(Oc3ccc(F)cc3F)cc2F)ccc2c1C(=O)N(C1CCC(=O)NC1=O)C2` (centres unmarked) [Example 30, [2-(2,6-dioxopiperidin-3-yl)-4-methoxy-3-oxo-2,3-dihydro-1H-isoindol-5-yl]methyl N-[4-(2,4-difluorophenoxy)-2-fluorophenyl]carbamate], the DC50 (Cyclin E1) was 672 nM, the Dmax (Cyclin E1) was 103% and the “Ratio of GSPT1 DC50/Cyclin E1 DC50” value (Cyclin E1) was greater than 21. For the same compound, the DC50 (GSPT1) was greater than 14000 nM, the Dmax (GSPT1) was 31% and the IC50 (Phospho-Rb (Ser807/811)) was 442 nM. For the same compound, the Emax (Phospho-Rb (Ser807/811)) was 107%.
With `COc1ccccc1Oc1ccc(NC(=O)OCc2ccc3c(c2OC)C(=O)N(C2CCC(=O)NC2=O)C3)cc1` (centres unmarked) [Example 31, [2-(2,6-dioxopiperidin-3-yl)-4-methoxy-3-oxo-2,3-dihydro-1H-isoindol-5-yl]methyl N-[4-(2-methoxyphenoxy)phenyl]carbamate] the DC50 (Cyclin E1) was 735 nM, the Dmax (Cyclin E1) was 83% and the “Ratio of GSPT1 DC50/Cyclin E1 DC50” value (Cyclin E1) was 9. For the same compound, the DC50 (GSPT1) was 6600 nM, the Dmax (GSPT1) was 64% and the IC50 (Phospho-Rb (Ser807/811)) was 2310 nM. For the same compound, the Emax (Phospho-Rb (Ser807/811)) was 81%.
In the case of `COc1cccc(Oc2ccc(NC(=O)OCc3ccc4c(c3OC)C(=O)N(C3CCC(=O)NC3=O)C4)cc2)c1` (centres unmarked) [Example 32, [2-(2,6-dioxopiperidin-3-yl)-4-methoxy-3-oxo-2,3-dihydro-1H-isoindol-5-yl]methyl N-[4-(3-methoxyphenoxy)phenyl]carbamate], the DC50 (Cyclin E1) is reported as 67 nM, the Dmax (Cyclin E1) is reported as 96% and the “Ratio of GSPT1 DC50/Cyclin E1 DC50” value (Cyclin E1) is reported as greater than 208. It also gave a DC50 (GSPT1) greater than 14000 nM, a Dmax (GSPT1) of 24% and an IC50 (Phospho-Rb (Ser807/811)) of 498 nM. For the same compound, the Emax (Phospho-Rb (Ser807/811)) was 83%.
With `COc1cc(F)c(F)cc1Oc1ccc(NC(=O)OCc2ccc3c(c2OC)C(=O)N(C2CCC(=O)NC2=O)C3)c(C)c1` (centres unmarked) [Example 33, [2-(2,6-dioxopiperidin-3-yl)-4-methoxy-3-oxo-2,3-dihydro-1H-isoindol-5-yl]methyl N-[4-(4,5-difluoro-2-methoxyphenoxy)-2-methylphenyl]carbamate] the DC50 (Cyclin E1) was 1630 nM, the Dmax (Cyclin E1) was 85% and the “Ratio of GSPT1 DC50/Cyclin E1 DC50” value (Cyclin E1) was greater than 9. For the same compound, the DC50 (GSPT1) was greater than 14000 nM, the Dmax (GSPT1) was 8% and the IC50 (Phospho-Rb (Ser807/811)) was 809 nM. For the same compound, the Emax (Phospho-Rb (Ser807/811)) was 87%.
In the case of `COc1cc(Oc2cc(F)c(F)cc2F)ccc1NC(=O)OCc1ccc2c(c1OC)C(=O)N(C1CCC(=O)NC1=O)C2` (centres unmarked) [Example 34, [2-(2,6-dioxopiperidin-3-yl)-4-methoxy-3-oxo-2,3-dihydro-1H-isoindol-5-yl]methyl N-[2-methoxy-4-(2,4,5-trifluorophenoxy)phenyl]carbamate], the DC50 (Cyclin E1) is reported as 194 nM, the Dmax (Cyclin E1) is reported as 107% and the “Ratio of GSPT1 DC50/Cyclin E1 DC50” value (Cyclin E1) is reported as greater than 72. For the same compound, the DC50 (GSPT1) was greater than 14000 nM, the Dmax (GSPT1) was 19% and the IC50 (Phospho-Rb (Ser807/811)) was 77 nM. The Emax (Phospho-Rb (Ser807/811)) was 122%.
For `COc1cc(Oc2ccc(F)cc2)ccc1NC(=O)OCc1ccc2c(c1OC)C(=O)N(C1CCC(=O)NC1=O)C2` (centres unmarked) [Example 37, [2-(2,6-dioxopiperidin-3-yl)-4-methoxy-3-oxo-2,3-dihydro-1H-isoindol-5-yl]methyl N-[4-(4-fluorophenoxy)-2-methoxyphenyl]carbamate], the DC50 (Cyclin E1) was 107 nM, the Dmax (Cyclin E1) was 102% and the “Ratio of GSPT1 DC50/Cyclin E1 DC50” value (Cyclin E1) was greater than 131. It also gave a DC50 (GSPT1) greater than 14000 nM, a Dmax (GSPT1) of 28% and an IC50 (Phospho-Rb (Ser807/811)) of 289 nM. It also gave an Emax (Phospho-Rb (Ser807/811)) of 111%.
With `COc1c(COC(=O)Nc2ccc(Oc3ccc(F)c(F)c3)cc2C)ccc2c1C(=O)N(C1CCC(=O)NC1=O)C2` (centres unmarked) [Example 38, [2-(2,6-dioxopiperidin-3-yl)-4-methoxy-3-oxo-2,3-dihydro-1H-isoindol-5-yl]methyl N-[4-(3,4-difluorophenoxy)-2-methylphenyl]carbamate] the DC50 (Cyclin E1) was 91 nM, the Dmax (Cyclin E1) was 107% and the “Ratio of GSPT1 DC50/Cyclin E1 DC50” value (Cyclin E1) was 44. It also gave a DC50 (GSPT1) of 4000 nM, a Dmax (GSPT1) of 46% and an IC50 (Phospho-Rb (Ser807/811)) of 128 nM. It also gave an Emax (Phospho-Rb (Ser807/811)) of 111%.
For `COc1c(COC(=O)Nc2ccc(Oc3cccc(F)c3)cc2C)ccc2c1C(=O)N(C1CCC(=O)NC1=O)C2` (centres unmarked) [Example 39, [2-(2,6-dioxopiperidin-3-yl)-4-methoxy-3-oxo-2,3-dihydro-1H-isoindol-5-yl]methyl N-[4-(3-fluorophenoxy)-2-methylphenyl]carbamate], the DC50 (Cyclin E1) was 103 nM, the Dmax (Cyclin E1) was 108% and the “Ratio of GSPT1 DC50/Cyclin E1 DC50” value (Cyclin E1) was greater than 136. It also gave a DC50 (GSPT1) greater than 14000 nM, a Dmax (GSPT1) of 20% and an IC50 (Phospho-Rb (Ser807/811)) of 127 nM. For the same compound, the Emax (Phospho-Rb (Ser807/811)) was 111%.
`COc1c(COC(=O)Nc2ccc(Oc3cc(F)c(F)c(F)c3)cc2C)ccc2c1C(=O)N(C1CCC(=O)NC1=O)C2` (centres unmarked) [Example 40, [2-(2,6-dioxopiperidin-3-yl)-4-methoxy-3-oxo-2,3-dihydro-1H-isoindol-5-yl]methyl N-[2-methyl-4-(3,4,5-trifluorophenoxy)phenyl]carbamate] was tested, and the DC50 (Cyclin E1) was 41 nM, the Dmax (Cyclin E1) was 108% and the “Ratio of GSPT1 DC50/Cyclin E1 DC50” value (Cyclin E1) was greater than 339. For the same compound, the DC50 (GSPT1) was greater than 14000 nM, the Dmax (GSPT1) was 9% and the IC50 (Phospho-Rb (Ser807/811)) was 128 nM. It also gave an Emax (Phospho-Rb (Ser807/811)) of 110%.
With `COc1c(COC(=O)Nc2ccc(C(C)(C)c3ccccc3)cc2)ccc2c1C(=O)N(C1CCC(=O)NC1=O)C2` (centres unmarked) [Example 41, [2-(2,6-dioxopiperidin-3-yl)-4-methoxy-3-oxo-2,3-dihydro-1H-isoindol-5-yl]methyl N-[4-(2-phenylpropan-2-yl)phenyl]carbamate] the DC50 (Cyclin E1) was 336 nM, the Dmax (Cyclin E1) was 92% and the “Ratio of GSPT1 DC50/Cyclin E1 DC50” value (Cyclin E1) was greater than 42. For the same compound, the DC50 (GSPT1) was greater than 14000 nM, the Dmax (GSPT1) was 13% and the IC50 (Phospho-Rb (Ser807/811)) was 248 nM. The Emax (Phospho-Rb (Ser807/811)) was 100%.
In the case of `COc1c(COC(=O)Nc2ccc(Oc3ccc(F)cc3F)cc2C)ccc2c1C(=O)N(C1CCC(=O)NC1=O)C2` (centres unmarked) [Example 42, [2-(2,6-dioxopiperidin-3-yl)-4-methoxy-3-oxo-2,3-dihydro-1H-isoindol-5-yl]methyl N-[4-(2,4-difluorophenoxy)-2-methylphenyl]carbamate], the DC50 (Cyclin E1) is reported as 96 nM, the Dmax (Cyclin E1) is reported as 106% and the “Ratio of GSPT1 DC50/Cyclin E1 DC50” value (Cyclin E1) is reported as greater than 146. For the same compound, the DC50 (GSPT1) was greater than 14000 nM, the Dmax (GSPT1) was 20% and the IC50 (Phospho-Rb (Ser807/811)) was 132 nM. It also gave an Emax (Phospho-Rb (Ser807/811)) of 110%.
For `COc1c(COC(=O)Nc2ccc(Oc3cc(F)c(F)cc3F)cc2F)ccc2c1C(=O)N(C1CCC(=O)NC1=O)C2` (centres unmarked) [Example 43, [2-(2,6-dioxopiperidin-3-yl)-4-methoxy-3-oxo-2,3-dihydro-1H-isoindol-5-yl]methyl N-[2-fluoro-4-(2,4,5-trifluorophenoxy)phenyl]carbamate], the DC50 (Cyclin E1) was 165 nM, the Dmax (Cyclin E1) was 111% and the “Ratio of GSPT1 DC50/Cyclin E1 DC50” value (Cyclin E1) was greater than 85. It also gave a DC50 (GSPT1) greater than 14000 nM, a Dmax (GSPT1) of 33% and an IC50 (Phospho-Rb (Ser807/811)) of 131 nM. For the same compound, the Emax (Phospho-Rb (Ser807/811)) was 121%.
With `COc1c(COC(=O)Nc2ccc(Oc3cc(F)c(F)cc3F)cc2)ccc2c1C(=O)N(C1CCC(=O)NC1=O)C2` (centres unmarked) [Example 44, [2-(2,6-dioxopiperidin-3-yl)-4-methoxy-3-oxo-2,3-dihydro-1H-isoindol-5-yl]methyl N-[4-(2,4,5-trifluorophenoxy)phenyl]carbamate] the DC50 (Cyclin E1) was 273 nM, the Dmax (Cyclin E1) was 111% and the “Ratio of GSPT1 DC50/Cyclin E1 DC50” value (Cyclin E1) was greater than 51. It also gave a DC50 (GSPT1) greater than 14000 nM, a Dmax (GSPT1) of 42% and an IC50 (Phospho-Rb (Ser807/811)) of 109 nM. For the same compound, the Emax (Phospho-Rb (Ser807/811)) was 111%.
